Data: patent US6083920A, “Compositions for modulating intracellular inositol trisphosphate concentration” (priority 1996, dated 2000)
Entries after “also recorded” stand apart in the source; their conditions may differ.

How the values were obtained:
[1] = test system: metabotropic glutamate receptor; assay: Behavioral analysis after ICV infusion (quisqualate excitotoxicity); type: in vivo, male F344 rats
Description: The animals used in this experiment were male F344 rats (Charles River Breeding Laboratories). The animals were housed individually, exposed to a 12-hour light-dark cycle, and allowed free access to food and water. The animals weighed approximately 250 g at the beginning of each experiment and were weighed daily. In addition, the animals were habituated to handling before each experiment.
Before administering various compounds, the animals were anesthetized with sodium pentobarbital (50 mg/kg, i.p.) and positioned in a sterotaxic instrument. A 26 gauge cannula was inserted into the cerebral ventricle at the following co-ordinates: 1.0 mm posterior to bregma, 1.5 mm lateral to the midline, and 4.0 mm below the dorsal surface of the neocortex. Cannulas were capped and fixed in place with dental cement. One week after cannulation, 10 μl of each of the treatment drugs was infused, ICV (i.e. into the ventricals of the brain), via a micropump at a rate of 10 μl/min. For this procedure, the animals were lightly restrained and unanesthetized. Following administration of the compound, the infusion cannula remained in position for one minute, after which the permanent in situ cannula was capped.
The compounds administered were obtained from a commercial supplier (Sigma Chemical Co., St. Louis, Mo.) and dissolved in saline prior to injection. […]
Pilot studies identified several specific behavioral measures that could be used to indicate excessive activation of the metabotropic receptor (see Table 3). […] The experiments that follow were based on an analysis of these behaviors over a two hour period after administration of the compounds of the invention. Behavioral observation was carried out by two trained observers, who worked independently of one another and who were blind to the experimental groups. […] Frequency and duration means were computed by subtracting pre-infusion means from post-infusion means.
Some of the experiments that were performed first were carried out to determine the amount of quisqualate required to produce behavioral and histological changes and the amount of lysosphingolipids that could effectively prevent or reverse these effects. Table 3 outlines the behavioral responses of rats to various doses of quisqualate (injected as described above) and the associated histological changes. The behaviors are listed as they occur chronologically. The limb clasp and reflex tests indicate the degree of decortication. A limb clasp or placement score of zero is normal, and a score of 3 is severely abnormal.
The data shown in Table 4 represents the observations of pilot studies aimed at determining the effect (on behavior) of lysosphingolipids infused directly into the lateral ventricles of the brain 30 minutes prior to infusion of quisqualate.
The experiment began one week after ICV cannulation. Animals (n=6 per group) were randomly allocated to one of 8 treatment groups: (1) saline, (2) quisqualate at 225 nmoles, (3) psychosine at 125 nmoles, (4) lysosphingomyelin at 125 nmoles, (5) lysosphingomyelin at 150 nmoles, (6) quisqualate at 225 nmoles and psychosine at 125 nmoles, (7) quisqualate at 225 nmoles and lysosphingomyelin at 125 nmoles, and (8) quisqualate at 225 nmoles and lysosphingomyelin at 150 nmoles. Following the baseline observation period, animals received the first of two ICV infusions (all infusions were of a 10 μl volume that was administered over a 1 minute period). For the first five groups listed above, this consisted of saline (10 μl/minute), for the following 3 groups the infusions were psychosine at 125 nmoles, lysosphingomyelin at 125 nmoles, or Iysosphingomyelin at 150 nmoles, respectively. Thirty minutes later, all animals received the second infusion which, for the first five groups listed above, consisted of saline, quisqualate at 225 nmoles, psychosine at 125 nmoles, lysosphingomyelin at 125 mrnoles, and lysosphingomyelin at 150 nmoles respectively. […]

[2] = Lysosphingolipid loading of isolated neuronal plasma membrane; type: in vitro ADME, chick; conditions: Plasma Membrane Suspension, 10 μmolar exposure
Text: Total lipids were removed from the neuron samples by repeated extraction with chloroforn:methanol (2:1, vol:vol). […] The recovered lysosphingolipids were stably tagged with NBDZF by the rapid procedure of Nozowa et al. (supra). The fluorescence tagged neuronal lysosphingolipids were separated in parallel with reference standards NBDZF-Sph, NBDZF-Psy, and NBDZF-Lsm on high performance silica gel thin layer chromatography plates with acetonitrile:H2 O (10:0.5, vol:vol). The highly fluorescent, well separated bands were scraped from the plate. The fluorescence tagged lysosphingolipids are eluted from the scraped silica gel with methanol:1 N HCl (1:0.02, vol:vol). The fluorescence tagged lysosphingolipid eluates were quantitated against reference standards by fluorescence measurement in a Perkin-Elmer LS-5 Fluorescence Spectrometer.
Physiologically active phospholipase C is present on the endofacial portion of the plasma membrane. A procedure for examining its activity in an intact membrane is provided. […] One hundred Petri dishes of cultured cortical neurons were incubated overnight with 50 μCi [^3 H]myo-inositol per mL of culture medium. […] The collected neurons were homogenized in 5 mL 0.32 M sucrose and centrifuged at 1000×g for 15 minutes. The supernatant was layered on top of 2 ml 1.2 M sucrose and centrifuged at 300,000×g for 20 minutes. The sedimented pellet was resuspended by sonication for 10 seconds in 50 mM Tris buffer (pH 7.4), containing 0.3 μM CaCl2, 1 mM MgCl2, and 0.01% ascorbic acid.
The suspended plasma membrane preparation was apportioned into 250 μl samples, each providing approximately 100 μg membrane protein. Sphingosine, psychosine, and lysosphingomyelin were added to each plasma membrane sample. […] Samples were analyzed for lysosphingolipid loading (i.e., membrane lysosphingolipid content following exposure to exogenous sphingolipid) by fluorescence tagging. […] Values are reported in pmoles lysosphingolipid/mg plasma membrane protein.

[3] = test system: phospholipase C isoforms beta, delta, and gamma
Description: The effects of sphingosine, lysocerebroside, and lysosphingomyelin on the kinetics of pure, immunologically isolated phospholipase C isoforms beta, delta, and gamma (which are commercially available) was examined. For each isoform, 10 μM sphingosine was added to a reaction medium consisting of 1 μg phospholipase C isoform/ml, Tris-malate buffer (50 mM, pH 7.0) containing 100 μM phosphatidyl inositol bis-phosphate tri-ammonium salt, 0.01 μCi tritium labeled phosphatidyl inositol bis-phosphate, 100 mM NaCl, 10 mM CaCl2, and 5 mM 2-merceptoethanol.

[4] = 10 μM lysocerebroside or 5 μM lysosphingomyelin

## CCCCCCCCCCCCC/C=C/[C@@H](O)[C@@H](N)CO[C@@H]1O[C@H](CO)[C@H](O)[C@H](O)[C@H]1O [psychosine, lysocerebroside]
[1]; 125 nmoles ICV, no quisqualate
  convulsant behavior, compound alone: displayed no convulsant behavior
[1]; ICV, rat, pilot testing
  effective dose: 125 nmol
[1]; Psychosine 25 nmoles ICV 30 minutes prior to Quisqualate 200 nmoles
  BEHAVIORAL RESPONSE: Moderate convulsions, teeth chattering; also recorded: akinesia and hyperactivity
[1]; Psychosine 50 nmoles ICV 30 minutes prior to Quisqualate 200 nmoles
  BEHAVIORAL RESPONSE: Moderate convulsions, teeth chattering; also recorded: akinesia and hyperactivity
[1]; Psychosine 100 nmoles ICV 30 minutes prior to Quisqualate 200 nmoles
  BEHAVIORAL RESPONSE: Almost complete attenuation of Quisqualate; also recorded: some teeth chattering post-injection
[1]; Psychosine 100 nmoles ICV 30 minutes prior to Quisqualate 250 nmoles
  BEHAVIORAL RESPONSE: Moderate convulsions, teeth chattering; also recorded: akinesia. Quisqualate markedly reduced
[1]; Psychosine 125 nmoles ICV 30 minutes prior to Quisqualate 200 nmoles
  BEHAVIORAL RESPONSE: Complete attenuation of Quisqualate response
[1]; Psychosine 125 nmoles ICV 30 minutes prior to Quisqualate 225 nmoles
  BEHAVIORAL RESPONSE: Complete attenuation of Quisqualate response
[1]; Psychosine 150 nmoles ICV 30 minutes prior to Quisqualate 250 nmoles
  BEHAVIORAL RESPONSE: Almost complete attenuation of Quisqualate
[1]; Psychosine 150 nmoles ICV, short term
  sedation produced by the lysosphingolipid: sedation at this dose
[1]; doses as high as 125 nmoles per animal ICV
  behavioral or neurotoxic effects of the compound itself: no behavioral or neurotoxic effects were observed
[1]; pretreated with 125 nmoles ICV, rat
  behavioral and histological changes caused by quisqualate: absent
[1]; pretreatment 125 nmoles ICV 30 minutes before quisqualate 225 nmoles, n=6
  number of convulsions or spasms: significantly (p<01) attenuated
[2]; 0 h
  membrane lysosphingolipid content, 0 hours of incubation: 45 ± 5 pmoles lysosphingolipid/mg pla
[2]; 0.5 h
  membrane lysosphingolipid content, 0.5 hours of incubation: 75 ± 20 pmoles lysosphingolipid/mg pla
[2]; 1.0 h
  membrane lysosphingolipid content, 1.0 hours of incubation: 120 ± 15 pmoles lysosphingolipid/mg pla
[2]; 2.0 h
  membrane lysosphingolipid content, 2.0 hours of incubation: 180 ± 15 pmoles lysosphingolipid/mg pla
[2]; 3.0 h
  membrane lysosphingolipid content, 3.0 hours of incubation: 175 ± 20 pmoles lysosphingolipid/mg pla
[3]; [4]
  diminution in Vmax: 60%±10%
  increase in calcium ion concentration required for optimal activity: 5 fold
[3]; 10 μM sphingosine, 10 μM lysocerebroside, 5 μM lysosphingomyelin
  effect on KM for substrate phosphatidylinositol bis-phosphate: no change
